Values quoted from earlier work, collected in patent US20040120995A1, “Transdermal delivery of pergolide” (priority 2003, published 2004).
Structures can show the parent of a compound that is named as a salt. Where two headings read alike, the source gives them in different places.

Details: for Pergolide Blood Serum Level: human subjects

maximum blood serum level (2-3 hours following a 2.5 mg oral dose): about 500 picograms/ml
blood serum level (8 hours following a 0.5 mg oral dose): about 60 picograms/ml
Pergolide Blood Serum Level (oral dose 0.25 milligrams): 47.75 picograms/ml
Pergolide Blood Serum Level (oral dose 0.50 milligrams): 100.08 picograms/ml
Pergolide Blood Serum Level (oral dose 1.00 milligrams): 199.33 picograms/ml
Pergolide Blood Serum Level (oral dose 2.00 milligrams): 398.66 picograms/ml
Pergolide Blood Serum Level (oral dose 3.00 milligrams): 597.99 picograms/ml
peak serum concentration (oral dosing 3 mg/24 hours, divided into three doses): approximately 200 pg/ml
SMILES: CCCN1C[C@H](CSC)C[C@@H]2c3cccc4[nH]cc(c34)C[C@H]21 [pergolide mesylate]
